{"source": "patent US20130040814A1", "about": "“HERBICIDAL COMPOSITION” (ISHIHARA SANGYO KAISHA, LTD., priority 2010, published 2013)", "key": {"purple nutsedge [1]": {"test_system": "purple nutsedge", "experiment": "Test Example 1: pot test, foliar application of flazasulfuron and granule application of chlorthiamid, visual growth inhibition", "assay_type": "in vivo, Cyperus rofundus L.", "conditions": "Cyperus, read-out: Growth inhibition rate (%) of purple nutsedge, Measured value", "text": "When the herbicidal activity in a case where two active ingredients are combined, is larger than the simple sum (the expected activity) of the respective herbicidal activities of the two active ingredients, it is called a synergistic effect. The activity expected by the combination of two active ingredients can be calculated as follows (Colby S. R., “Weed”, vol. 15, p. 20-22, 1967).\n(§1) Upland field soil was put into a 1/1,000,000 ha pot, and tubers of purple nutsedge (Cyperus rofundus L.) were planted. 33 days later, when purple nutsedge reached a 6 to 7 leaf stage, a predetermined amount of water dispersible granules containing flazasulfuron as an active ingredient (tradename: SHIBAGEN DF, manufactured by Ishihara Sangyo Kaisha, Ltd.) was diluted with water (corresponding to 200 L/ha) containing 0.02 vol % of an agricultural adjuvant (tradename: Kusa-rino, manufactured by Nihon Nohyaku Co., Ltd.) and applied by foliar application by means of a small sprayer, and a predetermined amount of granules containing chlorthiamid as an active ingredient (tradename: GF Ben-pole granules, manufactured by Suimitomo Chemical Garden Products Inc.) was applied by granule application.\n(§2) Measured value of growth inhibition rate(%)(evaluated value by visual observation)=0(equivalent to non-treated area) to 100(complete kill)\n(§3) That is, the measured value of growth inhibition rate (%) was rated to be 0% in a case where the level of the growth inhibition of weeds was the same in the non-treated area and to be 100% in a case where the growth was completed inhibited and the weeds were killed."}, "green kyllinga [2]": {"test_system": "green kyllinga", "experiment": "Test Example 2: pot test on green kyllinga, visual growth inhibition", "assay_type": "in vivo, Kyllinga brevifolia var. leiolepis", "conditions": "Cyperus brevifolius, read-out: Growth inhibition rate (%) of green kyllinga, Measured value", "description": "as §1, §2, §3\nUpland field soil was put into a 1/1,000,000 ha pot, and rhizomes of green kyllinga (Kyllinga brevifolia var. leiolepis) were planted. 46 days later, when the height of green kyllinga reached 4 to 7 cm, a predetermined amount of SHIBAGEN DF, (tradename) and a predetermined amount of GF Ben-pole (tradename) were applied in the same manner as in Test Example 1."}, "purple nutsedge [3]": {"test_system": "purple nutsedge", "experiment": "Test Example 3: pot test, foliar application of herbicidal composition, visual growth inhibition", "assay_type": "in vivo, Cyperus rofundus L", "conditions": "Cyperus, read-out: Growth inhibition rate (%) of purple nutsedge, Measured value", "text": "as §2, §3\nUpland field soil was put into a 1/1,000,000 ha pot, and tubers of purple nutsedge (Cyperus rofundus L) were planted. 54 days later, when purple nutsedge reached a height of 25 to 30 cm, a predetermined amount of a herbicidal composition was diluted with water (corresponding to 200 L/ha) containing 0.02 vol % of an agricultural adjuvant (tradename: Kusa-rino, manufactured by Nihon Nohyaku Co., Ltd.) and applied by foliar application by means of a small sprayer.\nOn the 42nd day after application, the state of growth of the plant was visually observed, and in the same manner as in Test Example 1, the measured growth inhibition rate (%) and the calculated growth inhibition rate (%) obtained by the Colby's formula are shown in Table 3."}, "green kyllinga [4]": {"test_system": "green kyllinga", "experiment": "Test Example 5: pot test, sodium salt of trifloxysulfuron and chlorthiamid, visual growth inhibition", "assay_type": "in vivo, Kyllinga brevifolia var. leiolepis", "conditions": "Cyperus brevifolius, 42nd day after application, height 6 to 8 cm, read-out: Growth inhibition rate (%) of green kyllinga, Measured value", "text": "as §2, §3\n(§4) Upland field soil was put into a 1/1,000,000 ha pot, and tubers of purple nutsedge were planted. When purple nutsedge reached a 13 leaf stage, a predetermined amount of SHIBAGEN DF (tradename) and a predetermined amount of a wettable powder containing dichlobenil as an active ingredient (tradename: Kasoron wettable powder, manufactured by AGRO-KANESHO Co., Ltd.) were diluted with water (corresponding to 2,000 L/ha) containing 0.02 vol % of Kusa-rino (tradename) and applied by foliar application by means of a small sprayer.\nUpland field soil was put into a 1/1,000,000 ha pot, rhizomes of green kyllinga (Kyllinga brevifolia var. leiolepis) were planted."}, "green kyllinga [5]": {"test_system": "green kyllinga", "experiment": "Test Example 6: pot test, sodium salt of trifloxysulfuron and chlorthiamid or dichlobenil, visual growth inhibition", "assay_type": "in vivo, Kyllinga brevifolia var. leiolepis", "conditions": "Cyperus brevifolius, 42nd day after application, height 10 cm, read-out: Growth inhibition rate (%) of green kyllinga, Measured value; for inhibition at 5000 g/ha: dose 5,000 g/ha", "text": "as §2, §3, §4\nUpland field soil was put into a 1/1,000,000 ha pot, rhizomes of green kyllinga (Kyllinga brevifolia var. leiolepis) were planted. When the height of green kyllinga reached 10 cm, a predetermined amount of Monument water dispersible granules (tradename) and a predetermined amount of chlorthiamid (reagent, manufactured by Wako Pure Chemical Industries, Ltd.) or Kasoron wet powder (tradename) were applied in the same manner as in Test Example 4."}, "purple nutsedge [6]": {"test_system": "purple nutsedge", "experiment": "Test Example 4: pot test, foliar application of flazasulfuron and dichlobenil wettable powder, visual growth inhibition", "assay_type": "in vivo", "conditions": "Cyperus", "text": "as §2, §3, §4\nOn the 42nd day after application, the state of growth of purple nutsedge was visually observed, and in the same manner as in Test Example 1, the measured growth inhibition rate (%) and the calculated growth inhibition rate (%) obtained by the Colby's formula are shown in Table 4."}, "[7]": {"conditions": "read-out: Growth inhibition rate (%) of purple nutsedge, Measured value"}}, "note": "Where a name gives a salt, the structure may show the parent alone."}
{"smiles": "NC(=S)c1c(Cl)cccc1Cl", "note": "[Chlorthiamid, 2,6-dichlorothiobenzamide]", "values": [{"measurement": "inhibition at 1000 g/ha", "setting": "purple nutsedge [1]", "result": 35, "unit": "%"}, {"measurement": "inhibition at 2000 g/ha", "setting": "purple nutsedge [1]", "result": 33, "unit": "%"}, {"measurement": "inhibition at 4000 g/ha", "setting": "purple nutsedge [1]", "result": 50, "unit": "%"}, {"measurement": "inhibition at 6000 g/ha", "setting": "purple nutsedge [1]", "result": 69, "unit": "%"}, {"measurement": "inhibition at 1000 g/ha", "setting": "green kyllinga [2]", "result": 20, "unit": "%"}, {"measurement": "inhibition at 5000 g/ha", "setting": "green kyllinga [2]", "result": 65, "unit": "%"}, {"measurement": "inhibition at 500 g/ha", "setting": "purple nutsedge [3]", "result": 0, "unit": "%"}, {"measurement": "inhibition at 1000 g/ha", "setting": "purple nutsedge [3]", "result": 0, "unit": "%"}, {"measurement": "inhibition at 2000 g/ha", "setting": "purple nutsedge [3]", "result": 18, "unit": "%"}, {"measurement": "inhibition at 4000 g/ha", "setting": "purple nutsedge [3]", "result": 33, "unit": "%"}, {"measurement": "inhibition at 1000 g/ha", "setting": "green kyllinga [4]; dose 1,000 g/ha", "result": 18, "unit": "%"}, {"measurement": "inhibition at 10000 g/ha", "setting": "green kyllinga [4]; dose 10,000 g/ha", "result": 30, "unit": "%"}, {"measurement": "inhibition at 5000 g/ha", "setting": "green kyllinga [5]", "result": 58, "unit": "%"}]}
{"smiles": "N#Cc1c(Cl)cccc1Cl", "note": "[Dichlobenil, 2,6-dichlorobenzonitrile]", "values": [{"measurement": "inhibition at 500 g/ha", "setting": "purple nutsedge [3]", "result": 10, "unit": "%"}, {"measurement": "inhibition at 1000 g/ha", "setting": "purple nutsedge [3]", "result": 23, "unit": "%"}, {"measurement": "inhibition at 2000 g/ha", "setting": "purple nutsedge [3]", "result": 10, "unit": "%"}, {"measurement": "inhibition at 4000 g/ha", "setting": "purple nutsedge [3]", "result": 33, "unit": "%"}, {"measurement": "inhibition at 500 g/ha", "setting": "purple nutsedge [6]; [7]", "result": 10, "unit": "%"}, {"measurement": "inhibition at 4000 g/ha", "setting": "purple nutsedge [6]; [7]", "result": 33, "unit": "%"}, {"measurement": "inhibition at 5000 g/ha", "setting": "green kyllinga [5]", "result": 58, "unit": "%"}]}
{"smiles": "COc1cc(OC)nc(NC(=O)NS(=O)(=O)c2ncccc2C(F)(F)F)n1", "note": "[Flazasulfuron, 1-(4,6-dimethoxypyrimidin-2-yl)-3-(3-trifluoromethyl-2-pyridylsulfonyl)urea]", "values": [{"measurement": "inhibition at 25 g/ha", "setting": "purple nutsedge [1]; dose 25 g/ha, 36th day after application, 6 to 7 leaf stage", "result": 18, "unit": "%"}, {"measurement": "inhibition at 50 g/ha", "setting": "purple nutsedge [1]; dose 50 g/ha, 36th day after application, 6 to 7 leaf stage", "result": 73, "unit": "%"}, {"measurement": "inhibition at 50 g/ha", "setting": "green kyllinga [2]; dose 50 g/ha, 54th day after application, height 4 to 7 cm", "result": 80, "unit": "%"}, {"measurement": "inhibition at 25 g/ha", "setting": "purple nutsedge [3]; dose 25 g/ha, 42nd day after application, height 25 to 30 cm", "result": 87, "unit": "%"}, {"measurement": "inhibition at 50 g/ha", "setting": "purple nutsedge [3]; dose 50 g/ha, 42nd day after application, height 25 to 30 cm", "result": 98, "unit": "%"}, {"measurement": "inhibition at 25 g/ha", "setting": "purple nutsedge [6]; dose 25 g/ha, 42nd day after application, 13 leaf stage, read-out: Growth inhibition rate (%) of Purple nutsedge, Measured value", "result": 87, "unit": "%"}]}
{"smiles": "COc1cc(OC)nc(NC(=O)NS(=O)(=O)c2ncccc2OCC(F)(F)F)n1", "note": "[Sodium salt of trifloxysulfuron, 1-(4,6-dimethoxypyrimidin-2-yl)-3-[3-(2,2,2-trifluoroethoxy)-2-pyridylsulfonyl]urea]", "values": [{"measurement": "inhibition at 10 g/ha", "setting": "green kyllinga [4]; dose 10 g/ha", "result": 0, "unit": "%"}, {"measurement": "inhibition at 200 g/ha", "setting": "green kyllinga [4]; dose 200 g/ha", "result": 25, "unit": "%"}, {"measurement": "inhibition at 45 g/ha", "setting": "green kyllinga [5]; dose 45 g/ha", "result": 0, "unit": "%"}]}
